ChEMBL document CHEMBL1275543, “Proposed MIC and disk diffusion microbiological cutoffs and spectrum of activity of retapamulin, a novel topical antimicrobial agent” (2008)
In brackets after ≈: the same amount, converted by molar mass.

Tests used:
Assay type in all cases: functional
[1] = system: Staphylococcus; experiment: Antibacterial activity against coagulase-negative Staphylococcus
[2] = system: Streptococcus pyogenes; experiment: Antibacterial activity against Streptococcus pyogenes
[3] = system: Staphylococcus; experiment: Antibacterial activity against methicillin resistant coagulase-negative Staphylococcus
[4] = system: Staphylococcus aureus; experiment: Antibacterial activity against Staphylococcus aureus
[5] = system: Staphylococcus aureus; experiment: Ratio of MBC90 to MIC90 for Staphylococcus aureus
[6] = system: Staphylococcus aureus; experiment: Antibacterial activity against methicillin sensitive Staphylococcus aureus
[7] = system: Staphylococcus aureus; experiment: Antibacterial activity against vancomycin intermediate Staphylococcus aureus
[8] = system: Staphylococcus; experiment: Antibacterial activity against methicillin sensitive coagulase-negative Staphylococcus
[9] = Antibacterial activity against beta-hemolytic Streptococcus group G; settings: Streptococcus sp. 'group G'
[10] = system: Streptococcus pyogenes; experiment: Ratio of MBC90 to MIC90 for Streptococcus pyogenes
[11] = system: Staphylococcus; experiment: Ratio of MBC90 to MIC90 for coagulase-negative Staphylococcus
[12] = system: Enterococcus; experiment: Antibacterial activity against Enterococcus species
[13] = system: Streptococcus viridans; experiment: Antibacterial activity against Streptococcus viridans
[14] = Antibacterial activity against gram-negative Bacilli species
[15] = Antibacterial activity against beta-hemolytic Streptococcus group C; settings: Streptococcus sp. 'group C'
[16] = system: Streptococcus agalactiae; experiment: Antibacterial activity against Streptococcus agalactiae
[17] = system: Staphylococcus aureus; experiment: Antibacterial activity against methicillin resistant Staphylococcus aureus

## C=C[C@]1(C)C[C@@H](OC(=O)CS[C@@H]2C[C@H]3CC[C@@H](C2)N3C)[C@]2(C)[C@H](C)CC[C@]3(CCC(=O)[C@H]32)[C@@H](C)[C@@H]1O [RETAPAMULIN]
[1]
  MBC: 64 µg/mL (≈ 124 µM)
[2]
  Activity: 16 µg/mL
[2]; Streptococcus pyogenes
  MIC: 0.016 µg/mL (≈ 0.0309 µM)
  MIC50: 0.016 µg/mL (≈ 0.0309 µM)
  MIC90: 0.03 µg/mL (≈ 0.0579 µM)
[3]
  MIC50: 0.06 µg/mL (≈ 0.116 µM)
  MIC90: 0.12 µg/mL (≈ 0.232 µM)
[4]
  Activity: 128 µg/mL
[5]
  Ratio: 1024
[6]
  MIC50: 0.12 µg/mL (≈ 0.232 µM)
  MIC90: 0.12 µg/mL (≈ 0.232 µM)
[7]
  MIC50: 0.06 µg/mL (≈ 0.116 µM)
  MIC90: 0.12 µg/mL (≈ 0.232 µM)
[8]
  MIC50: 0.12 µg/mL (≈ 0.232 µM)
  MIC90: 4 µg/mL (≈ 7.73 µM)
[9]
  MIC50: 0.03 µg/mL (≈ 0.0579 µM)
  MIC90: 0.06 µg/mL (≈ 0.116 µM)
[10]
  Ratio: 256
[11]
  Ratio: 512
[12]
  MIC50: 64 µg/mL (≈ 124 µM)
  MIC90: 128 µg/mL (≈ 247 µM)
[13]
  MIC50: 0.06 µg/mL (≈ 0.116 µM)
  MIC90: 0.25 µg/mL (≈ 0.483 µM)
[14]
  MIC50: 256 µg/mL (≈ 494 µM)
  MIC90: > 512 µg/mL
[15]
  MIC: 0.016 µg/mL (≈ 0.0309 µM)
  MIC50: 0.016 µg/mL (≈ 0.0309 µM)
  MIC90: 0.03 µg/mL (≈ 0.0579 µM)
[16]
  MIC50: 0.03 µg/mL (≈ 0.0579 µM)
  MIC90: 0.03 µg/mL (≈ 0.0579 µM)
[17]
  MIC50: 0.12 µg/mL (≈ 0.232 µM)
  MIC90: 0.12 µg/mL (≈ 0.232 µM)

## C/C(=C\C(=O)OCCCCCCCCC(=O)O)C[C@@H]1OC[C@H](C[C@@H]2O[C@H]2[C@@H](C)[C@H](C)O)[C@@H](O)[C@H]1O [MUPIROCIN]
[2]; Streptococcus pyogenes
  MIC50: 0.12 µg/mL (≈ 0.24 µM)
  MIC90: 0.25 µg/mL (≈ 0.499 µM)
[3]
  MIC50: 0.25 µg/mL (≈ 0.499 µM)
  MIC90: > 32 µg/mL
[6]
  MIC50: 0.25 µg/mL (≈ 0.499 µM)
  MIC90: 0.5 µg/mL (≈ 0.999 µM)
[7]
  MIC50: 0.25 µg/mL (≈ 0.499 µM)
  MIC90: 1 µg/mL (≈ 2 µM)
[8]
  MIC50: 0.25 µg/mL (≈ 0.499 µM)
  MIC90: 32 µg/mL (≈ 63.9 µM)
[9]
  MIC50: 0.25 µg/mL (≈ 0.499 µM)
  MIC90: 0.5 µg/mL (≈ 0.999 µM)
[12]
  MIC50: 32 µg/mL (≈ 63.9 µM)
  MIC90: > 32 µg/mL
[13]
  MIC50: 1 µg/mL (≈ 2 µM)
  MIC90: 2 µg/mL (≈ 3.99 µM)
[14]
  MIC50: > 32 µg/mL
  MIC90: > 32 µg/mL
[15]
  MIC50: 0.5 µg/mL (≈ 0.999 µM)
  MIC90: 1 µg/mL (≈ 2 µM)
[16]
  MIC50: 1 µg/mL (≈ 2 µM)
  MIC90: 2 µg/mL (≈ 3.99 µM)
[17]
  MIC50: 0.25 µg/mL (≈ 0.499 µM)
  MIC90: 2 µg/mL (≈ 3.99 µM)
